# Where two headings read alike, the source gives them in different places.
# Assays:
# MCF-7 cells [1] = test: MTT cytotoxicity assay, MCF-7; assay type: cell-based, human; settings: Homo sapiens, MCF7, 72 h, read-out: GI50 ± SD (μM) MCF-7
# HCT-116 cells = test: MTT cytotoxicity assay, HCT-116; assay type: cell-based, human; settings: Homo sapiens, HCT-116, 72 h, read-out: GI50 ± SD (μM) HCT-116
# recombinant TOP1 = target: T1, recombinant TOP1 (Homo sapiens, UniProt P11387); test: TOP1-mediated DNA cleavage assay; assay type: biochemical; settings: semiquantitative relative to CPT at 1 μM
# T1 sequence (P11387 1-765): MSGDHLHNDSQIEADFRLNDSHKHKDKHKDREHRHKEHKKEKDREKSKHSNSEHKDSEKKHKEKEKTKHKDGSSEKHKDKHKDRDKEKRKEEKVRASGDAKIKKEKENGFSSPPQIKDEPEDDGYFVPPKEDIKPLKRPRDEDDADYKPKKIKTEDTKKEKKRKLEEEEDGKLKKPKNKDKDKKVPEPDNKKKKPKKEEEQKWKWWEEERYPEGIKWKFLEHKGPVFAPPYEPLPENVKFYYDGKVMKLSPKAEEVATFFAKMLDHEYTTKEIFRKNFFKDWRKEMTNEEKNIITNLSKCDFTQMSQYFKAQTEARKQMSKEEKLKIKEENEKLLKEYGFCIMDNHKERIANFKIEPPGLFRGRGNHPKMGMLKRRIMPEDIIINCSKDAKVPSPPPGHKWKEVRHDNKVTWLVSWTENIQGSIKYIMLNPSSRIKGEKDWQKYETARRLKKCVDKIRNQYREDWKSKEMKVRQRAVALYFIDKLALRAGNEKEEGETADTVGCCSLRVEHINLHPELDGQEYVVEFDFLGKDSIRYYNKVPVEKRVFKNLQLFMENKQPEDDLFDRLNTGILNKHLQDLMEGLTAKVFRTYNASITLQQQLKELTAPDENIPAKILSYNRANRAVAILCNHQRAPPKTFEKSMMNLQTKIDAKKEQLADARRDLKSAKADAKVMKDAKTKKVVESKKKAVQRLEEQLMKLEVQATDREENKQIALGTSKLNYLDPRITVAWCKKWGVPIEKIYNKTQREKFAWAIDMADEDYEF
# recombinant human TDP1 = recombinant human TDP1 (Homo sapiens, UniProt Q9NUW8); test: TDP1 gel-based inhibition assay; assay type: biochemical
# [2] = test system: MCF-7/TDP1 cells (overexpressing TDP1); test: Drug combination with TPT; assay type: cell-based, human; settings: co-incubated with TPT for 96 h
# MCF-7 cells [3] = test: Drug combination with TPT; assay type: cell-based, human; settings: co-incubated with TPT for 96 h, 43 at 1 μM
# [4] = target: T2, cellular TOP1ccs in MCF-7 cells (Homo sapiens, UniProt P11387); test: ICE assay for cellular TOP1cc; settings: 1 h, 38 at 25, 50, 100 μM, TPT at 25 and 50 μM
# T2 sequence (P11387 2-765 limits assumed): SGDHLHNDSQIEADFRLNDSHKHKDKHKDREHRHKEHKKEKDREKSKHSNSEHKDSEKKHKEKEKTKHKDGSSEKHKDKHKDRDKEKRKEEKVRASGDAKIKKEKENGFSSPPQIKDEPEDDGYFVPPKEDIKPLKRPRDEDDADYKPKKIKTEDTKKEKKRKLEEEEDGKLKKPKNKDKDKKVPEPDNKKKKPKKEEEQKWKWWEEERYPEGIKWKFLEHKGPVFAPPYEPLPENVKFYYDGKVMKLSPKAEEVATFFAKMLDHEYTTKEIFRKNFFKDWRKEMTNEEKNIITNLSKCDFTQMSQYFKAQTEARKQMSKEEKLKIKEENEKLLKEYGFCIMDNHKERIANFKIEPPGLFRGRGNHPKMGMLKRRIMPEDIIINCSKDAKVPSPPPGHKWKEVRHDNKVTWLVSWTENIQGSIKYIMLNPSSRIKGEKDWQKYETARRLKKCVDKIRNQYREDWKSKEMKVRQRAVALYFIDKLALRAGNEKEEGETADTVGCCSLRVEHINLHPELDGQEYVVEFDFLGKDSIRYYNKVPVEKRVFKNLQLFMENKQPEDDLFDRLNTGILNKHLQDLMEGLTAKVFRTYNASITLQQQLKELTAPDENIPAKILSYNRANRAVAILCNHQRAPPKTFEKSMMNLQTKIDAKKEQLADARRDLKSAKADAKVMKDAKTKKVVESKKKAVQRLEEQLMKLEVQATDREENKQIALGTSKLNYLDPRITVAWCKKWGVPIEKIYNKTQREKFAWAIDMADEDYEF
# [5] = test system: γH2AX foci in MCF-7 cells; test: γH2AX immunofluorescence assay; assay type: cell-based, human; settings: 5 h
# [6] = target: cellular TDP1ccs in MCF-7 cells (Homo sapiens, UniProt Q9NUW8); settings: 1 h
# MCF-7 cells [7] = test: Flow cytometry apoptosis assay; assay type: cell-based, human; settings: 4 µM, 24 h
# [8] = TOP1 cleavage inhibitory activity, Table 2
# Sequence of recombinant human TDP1 (Q9NUW8 whole entry): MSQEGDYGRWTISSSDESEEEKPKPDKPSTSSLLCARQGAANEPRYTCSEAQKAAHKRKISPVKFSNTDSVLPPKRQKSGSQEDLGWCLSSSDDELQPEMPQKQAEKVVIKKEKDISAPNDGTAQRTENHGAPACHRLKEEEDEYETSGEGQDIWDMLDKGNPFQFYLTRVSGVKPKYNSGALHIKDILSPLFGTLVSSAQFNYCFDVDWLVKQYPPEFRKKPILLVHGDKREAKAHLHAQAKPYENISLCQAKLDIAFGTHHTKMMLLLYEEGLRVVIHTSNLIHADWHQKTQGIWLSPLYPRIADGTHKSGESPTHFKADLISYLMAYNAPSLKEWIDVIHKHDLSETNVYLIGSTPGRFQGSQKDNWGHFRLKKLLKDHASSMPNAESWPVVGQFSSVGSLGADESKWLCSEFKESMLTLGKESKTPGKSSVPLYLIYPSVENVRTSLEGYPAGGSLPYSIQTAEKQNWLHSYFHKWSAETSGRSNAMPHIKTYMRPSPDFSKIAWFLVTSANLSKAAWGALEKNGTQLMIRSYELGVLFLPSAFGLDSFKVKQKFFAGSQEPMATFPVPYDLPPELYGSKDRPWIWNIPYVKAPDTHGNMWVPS
# Sequence of cellular TDP1ccs in MCF-7 cells (Q9NUW8 whole entry): as above
SMILES,GI50 (MCF-7 cells [1]) [µM],GI50 (HCT-116 cells) [µM],TOP1 Inhibition (recombinant TOP1; [8]),IC50 (recombinant human TDP1) [µM],also measured
"COc1cc2c(=O)n(C)c3c4cc5c(cc4cc(OCCN(C)C)c3c2cc1OC)OCO5 [Compound 34, 5-(2-(Dimethylamino)ethoxy)-2,3-dimethoxy-12-methyl-[1,3]dioxolo[4’,5’:4,5]benzo[1,2-c]phenanthridin-13(12H)-one]",27 ± 1.5,11 ± 0.48,"+ (+, between 20% and 50% activity)",37 to 111,
"COc1cc2c(=O)n(C)c3c4cc5c(cc4cc(OCCCN(C)C)c3c2cc1OC)OCO5 [Compound 35, 5-(3-(Dimethylamino)propoxy)-2,3-dimethoxy-12-methyl-[1,3]dioxolo[4’,5’:4,5]benzo[1,2-c]phenanthridin-13(12H)-one]",1.2 ± 0.1,0.55 ± 0.17,0,18 ± 6.9,combination index (CI) with TPT [2]: 0.003–0.51; TOP1 Inhibition (recombinant TOP1): no TOP1 inhibition; combination index (CI) with TPT (MCF-7 cells [3]): 0.02–0.69
"CCN(CC)CCOc1cc2cc3c(cc2c2c1c1cc(OC)c(OC)cc1c(=O)n2C)OCO3 [Compound 36, 5-(2-(Diethylamino)ethoxy)-2,3-dimethoxy-12-methyl-[1,3]dioxolo[4’,5’:4,5]benzo[1,2-c]phenanthridin-13(12H)-one]",1.6 ± 0.17,2.1 ± 0.23,0,,"IC50 (recombinant human TDP1; read-out: IC50 (μM) for TDP1, gel-based assay, Table 2): > 111 µM"
"CCN(CC)CCCOc1cc2cc3c(cc2c2c1c1cc(OC)c(OC)cc1c(=O)n2C)OCO3 [Compound 37, 5-(3-(Diethylamino)propoxy)-2,3-dimethoxy-12-methyl-[1,3]dioxolo[4’,5’:4,5]benzo[1,2-c]phenanthridin-13(12H)-one]",2 ± 0.1,2.4 ± 0.11,"+ (+, between 20% and 50% activity)",15 ± 2.4,
"COc1cc2c(=O)n(C)c3c4cc5c(cc4cc(OCCN4CCCC4)c3c2cc1OC)OCO5 [Compound 38, 2,3-Dimethoxy-12-methyl-5-(2-(pyrrolidin-1-yl)ethoxy)-[1,3]dioxolo[4’,5’:4,5]benzo[1,2-c]phenanthridin-13(12H)-one]",6.4 ± 1,0.25 ± 0.02,"+++ (+++, between 75% and 95% activity)",37 to 111,cellular TOP1cc trapping [4]: trapped cellular TOP1ccs in MCF-7 cells in a dose-dependent manner
"COc1cc2c(=O)n(C)c3c4cc5c(cc4cc(OCCCN4CCCC4)c3c2cc1OC)OCO5 [Compound 39, 2,3-Dimethoxy-12-methyl-5-(3-(pyrrolidin-1-yl)propoxy)-[1,3]dioxolo[4’,5’:4,5]benzo[1,2-c]phenanthridin-13(12H)-one]",1.4 ± 0.13,1.3 ± 0.21,"+ (+, between 20% and 50% activity)",15 ± 2.8,
"COc1cc2c(=O)n(C)c3c4cc5c(cc4cc(OCCN4CCOCC4)c3c2cc1OC)OCO5 [Compound 40, 2,3-Dimethoxy-12-methyl-5-(2-morpholinoethoxy)-[1,3]dioxolo[4’,5’:4,5]benzo[1,2-c]phenanthridin-13(12H)-one]",18 ± 0.67,15 ± 1.08,"++ (++, between 50% and 75% activity)",> 111,
"COc1cc2c(=O)n(C)c3c4cc5c(cc4cc(OCCCN4CCOCC4)c3c2cc1OC)OCO5 [Compound 41, 2,3-Dimethoxy-12-methyl-5-(3-morpholinopropoxy)-[1,3]dioxolo[4’,5’:4,5]benzo[1,2-c]phenanthridin-13(12H)-one]",7.9 ± 1,3.3 ± 0.73,"+ (+, between 20% and 50% activity)",> 111,
"COc1cc2c(=O)n(C)c3c4cc5c(cc4cc(OCCCO)c3c2cc1OC)OCO5 [Compound 42, 5-(3-Hydroxypropoxy)-2,3-dimethoxy-12-methyl-[1,3]dioxolo[4’,5’:4,5]benzo[1,2-c]phenanthridin-13(12H)-one]",51 ± 1.6,38 ± 2.31,"+ (+, between 20% and 50% activity)",> 111,
"COc1cc2c(=O)n(C)c3c4cc5c(cc4cc(OCCCNCCO)c3c2cc1OC)OCO5 [Compound 43, 5-(3-((2-Hydroxyethyl)amino)propoxy)-2,3-dimethoxy-12-methyl-[1,3]dioxolo[4’,5’:4,5]benzo [1,2-c]phenanthridin-13(12H)-one]",2.2 ± 1.2,0.29 ± 0.19,"+ (+, between 20% and 50% activity)",10 ± 3.8,"γH2AX foci, fold compared with TPT treated alone ([5]; co-treatment with TPT and 43 at 1 μM): about 1.9 fold; γH2AX foci, fold compared with TPT treated alone ([5]; co-treatment with TPT and 43 at 2 μM): ~2.4 fold; DNA damage (γH2AX foci) relative to that of TPT ([5]; compound alone at 1 μM): about one fifth; combination index (CI) with TPT [2]: 0.003–0.51; quantity of cellular TDP1cc ([6]; co-treated with TPT (10 μM) and 43 (10 and 100 μM)): significantly enhanced; cellular TDP1ccs ([6]; compound alone at 100 μM): significantly enhanced; late apoptosis, % cells (MCF-7 cells [7]): ~28.58%; combination index (CI) with TPT (MCF-7 cells [3]): 0.18–0.77"
"COc1cc2c(=O)n(C)c3c4cc5c(cc4cc(OCCCn4ccnc4)c3c2cc1OC)OCO5 [Compound 44, 5-(3-(1H-imidazol-1-yl)propoxy)-2,3-dimethoxy-12-methyl-[1,3]dioxolo[4’,5’:4,5]benzo[1,2-c]phenanthridin-13(12H)-one]",7 ± 0.55,10 ± 1.2,"0/+ (0/+, less than 20%)",> 111,
"COc1cc2c(=O)n(C)c3c4cc5c(cc4cc(OCCCN4CCN(c6cccc(C(F)(F)F)c6)CC4)c3c2cc1OC)OCO5 [Compound 45, 2,3-Dimethoxy-12-methyl-5-(3-(4-(3-(trifluoromethyl)phenyl)piperazin-1-yl)propoxy)-[1,3]dioxolo[4’,5’:4,5]benzo[1,2-c]phenanthridin-13(12H)-one]",85 ± 3.8,> 100,0,> 111,
"CC[C@@]1(O)C(=O)OCc2c1cc1n(c2=O)Cc2cc3c(CN(C)C)c(O)ccc3nc2-1 [TPT, Topotecan, reference compound]",,,,,γH2AX foci formation ([5]; alone): could obviously induce γH2AX foci formation; cellular TOP1cc trapping [4]: trapped cellular TOP1ccs

# Reference: publication PMC10233710 (ChemMedChem, 2023)
